Test results: patent publication EP4140481A1, “PROTEIN-OLIGOMER BINDING AGENTS AND THERAPEUTIC USES THEREOF” (Galyan Bio, Inc., priority 2021, dated 2023)
“Also recorded” adds a separate entry of the source.

Key:
[1] = biological target: T1, Wild type (wt) α-Synuclein (Homo sapiens, UniProt P37840); assay: Dynamic Light Scattering (DLS), induced aggregation; format: biochemical
T1 construct: purchased rPeptide, Watkinsville, Georgia S-1001-2
Method: In order to induce the formation of smaller oligomers of the α-Synuclein protein it was hypothised that using DMSO as a solvent induces oligomer formation Kostka et al., THE JOURNAL OF BIOLOGICAL […] VOL. 283, NO. 16, pp. 10992-11003, April 18, 2008). In order to assess the ability of certain compounds to induce formation of aggregates from protein-oligomers, the following experiments were conducted.
(§1) Proteins were ultracentrifuged with 50,000 rpm (rounds per minute) for one hour at 2 °C. The supernatant was used for DLS measurements. DLS measurements were conducted with Malvern Zetasizer Nano (Malvern Panalytical Ltd, United Kingdom).
Wild type (wt) α-Synuclein (catalog S-1001-2, rPeptide, Watkinsville, Georgia) was solved in 20 mM phosphate, pH 7.4 buffer.
As mentioned, it was described that 1% DMSO was used to induce α-Synuclein to form small oligomers (Kostka et al., THE JOURNAL OF BIOLOGICAL […] VOL. 283, NO. 16, pp. 10992-11003, April 18, 2008). 1% DMSO (Sigma) was used to trigger small oligomer formation of wt α-Synuclein. 1% DMSO was added to wt α-Synuclein to measure the effect of DMSO alone on wt α-Synuclein. With DLS there is no volume difference detectable between wt α-Synuclein with and without 1% DMSO (Figure 44). […] 1% DMSO induces the formation of small oligomers, which interact with Compound 4 and form larger aggregates of the oligomers.

A30P mutant α-Synuclein = biological target: T2, A30P mutant α-Synuclein (Homo sapiens, UniProt P37840, A30P); assay: as above; format: biochemical
T2 construct: purchased rPeptide, Watkinsville, Georgia S-1005-2
Method: as §1
A30P mutant α-Synuclein (catalog S-1005-2, rPeptide, Watkinsville, Georgia) was solved in 20 mM phosphate, pH 7.4 buffer.

C. elegans = C. elegans differential gene expression (RNA-Seq); format: in vivo; settings: vs. vehicle control
Method: […]. Both young (adult day 3) and aged (adult day 10) worms were collected from the same population of worms tested in lifespan assay.
Technical Background and Data Visualization Guide: Differential gene expression was performed with EdgeR using […] likelihood ratio tests based on fitting linear models. The likelihood ratios were used to determine the p-values which were subsequently corrected for using the BH false discovery rate (fdr) method. Eventually, differential expressed genes (DEG) were defined as genes with fdr-corrected p-value of 0.05 or lower, as well as a change in expression of at least 2-fold in a given between-group comparison. In this study, the following comparisons groups were used: Table 36: Comparison groups for differential gene expression
[…]. All DEG shown have P values under the cutoff of 0.05; […]. Gene function annotations collected from WormBase and human orthologs are predicted by DRSC Integrative Ortholog Prediction Tool (DIOPT, www.flyrna.org). […] […]. All DEG shown have P values under the cutoff of 0.05; […]. Gene function annotations collected from WormBase and human orthologs are predicted by DRSC Integrative Ortholog Prediction Tool (DIOPT, www.flyrna.org).

[2] = Pharmacokinetics of Compound 22 in plasma and brain (UHPLC-TOF); format: in vivo, male CD1 mice
Method: Compound 22 pharmacokinetic properties was measured in three male CD1 mice at several timepoints. Compound 22 was dissolved in 10% DMSO, 10%, cremaphor, and 80% saline. The tested dose was 33.3 mg/kg body weight. Brain tissue was homogenized and protein precipitated with acetonitrile. […] As such, Compound 22 was selected for testing in an animal model of HD the R6/2 model. As described below, Compound 22 and its analogs were further tested for their effects on striatal cell viability and effects of mHTT levels.

Oral bioavailability = settings: mouse, in vivo, mice
[3] = by volume, 70 µM equimolar Compound 4 solved in methanol
[4] = by volume, equimolar Compound 4 solved in DMSO (1% DMSO)
[5] = by number, 100 µM equimolar Compound 4
[6] = by volume, 100 µM equimolar Compound 4

CCc1c(C)[nH]c2ccc(C(=O)NCCN(CC)CC)cc12 [Compound 4, N-(2-(diethylamino)ethyl)-3-ethyl-2-methyl-1H-indole-5-carboxamide]
aggregation of wt α-Synuclein ([1]; Compound 4 solved in DMSO): forms aggregates
% Volume, Peak 2 [1, 3]: 0.3%
% Volume, Peak 3 [1, 3]: 0.3%
Size, Peak 1 [1, 3]: 6.139 nm
Size, Peak 2 [1, 3]: 80.87 nm
Size, Peak 3 [1, 3]: 338.7 nm
% Volume, Peak 1 [1, 4]: 96.2%
% Volume, Peak 2 [1, 4]: 3.8%
Size, Peak 1 [1, 4]: 144.0 nm
Size, Peak 2 [1, 4]: 4794 nm
% Number, Peak 1 (A30P mutant α-Synuclein; [5]): 100,0%
Size, Peak 1 (A30P mutant α-Synuclein; [5]): 86,77 nm
% Volume, Peak 1 (A30P mutant α-Synuclein; [6]): 36.1%
% Volume, Peak 2 (A30P mutant α-Synuclein; [6]): 36.3%
% Volume, Peak 3 (A30P mutant α-Synuclein; [6]): 27.6%
Size, Peak 1 (A30P mutant α-Synuclein; [6]): 107.0 nm
Size, Peak 2 (A30P mutant α-Synuclein; [6]): 313.6 nm
Size, Peak 3 (A30P mutant α-Synuclein; [6]): 3063 nm
aggregation of oligomers of A30P (A30P mutant α-Synuclein; equimolar Compound 4): induces the formation of aggregates of oligomers of A30P
cyp-35A1 Log2(fold change) (C. elegans; Day 3, 200 nM): 3.04
cyp-35B1 Log2(fold change) (C. elegans; Day 3, 200 nM): 3.41
cyp-35B2 Log2(fold change) (C. elegans; Day 3, 200 nM): 9.18
cyp-35B3 Log2(fold change) (C. elegans; Day 3, 200 nM): 12.96
irg-4 Log2(fold change) (C. elegans; Day 3, 200 nM): 1.37
irg-5 Log2(fold change) (C. elegans; Day 3, 200 nM): 2.09
pgp-13 Log2(fold change) (C. elegans; Day 3, 200 nM): 3.55
C18H9.6 Log2(fold change) (C. elegans; Day 3, 2 µM): 1.16
C29F3.7 Log2(fold change) (C. elegans; Day 3, 2 µM): 1.25
D1086.3 Log2(fold change) (C. elegans; Day 3, 2 µM): 1.19
F15B9.6 Log2(fold change) (C. elegans; Day 3, 2 µM): 1.57
F55G11.2 Log2(fold change) (C. elegans; Day 3, 2 µM): 2.80
T19B10.2 Log2(fold change) (C. elegans; Day 3, 2 µM): 1.79
cpr-4 Log2(fold change) (C. elegans; Day 3, 2 µM): 1.35
cyp-33A1 Log2(fold change) (C. elegans; Day 3, 2 µM): 1.27
cyp-35A1 Log2(fold change) (C. elegans; Day 3, 2 µM): 8.58
cyp-35B1 Log2(fold change) (C. elegans; Day 3, 2 µM): 5.05
cyp-35B2 Log2(fold change) (C. elegans; Day 3, 2 µM): 11.26
cyp-35B3 Log2(fold change) (C. elegans; Day 3, 2 µM): 15.81
cyp-35C1 Log2(fold change) (C. elegans; Day 3, 2 µM): 2.17
far-3 Log2(fold change) (C. elegans; Day 3, 2 µM): 1.66
gst-5 Log2(fold change) (C. elegans; Day 3, 2 µM): 2.71
irg-4 Log2(fold change) (C. elegans; Day 3, 2 µM): 3.88
irg-5 Log2(fold change) (C. elegans; Day 3, 2 µM): 5.88
pgp-13 Log2(fold change) (C. elegans; Day 3, 2 µM): 5.44
ugt-44 Log2(fold change) (C. elegans; Day 3, 2 µM): 1.45
cyp-35A1 Log2(fold change) (C. elegans; Day 10, 200 nM): 4.25
cyp-35B1 Log2(fold change) (C. elegans; Day 10, 200 nM): 1.62
cyp-35B2 Log2(fold change) (C. elegans; Day 10, 200 nM): 5.71
cyp-35B3 Log2(fold change) (C. elegans; Day 10, 200 nM): 11.65
irg-4 Log2(fold change) (C. elegans; Day 10, 200 nM): 1.22
irg-5 Log2(fold change) (C. elegans; Day 10, 200 nM): 2.12
pgp-13 Log2(fold change) (C. elegans; Day 10, 200 nM): 4.36
F55G11.2 Log2(fold change) (C. elegans; Day 10, 2 µM): 1.70
K08D8.6 Log2(fold change) (C. elegans; Day 10, 2 µM): 1.45
cpr-4 Log2(fold change) (C. elegans; Day 10, 2 µM): 1.80
cyp-35A1 Log2(fold change) (C. elegans; Day 10, 2 µM): 6.81
cyp-35B1 Log2(fold change) (C. elegans; Day 10, 2 µM): 2.06
cyp-35B2 Log2(fold change) (C. elegans; Day 10, 2 µM): 6.61
cyp-35B3 Log2(fold change) (C. elegans; Day 10, 2 µM): 13.40
cyp-35C1 Log2(fold change) (C. elegans; Day 10, 2 µM): 1.60
gst-5 Log2(fold change) (C. elegans; Day 10, 2 µM): 2.42
irg-4 Log2(fold change) (C. elegans; Day 10, 2 µM): 2.95
irg-5 Log2(fold change) (C. elegans; Day 10, 2 µM): 4.26
pgp-13 Log2(fold change) (C. elegans; Day 10, 2 µM): 6.36

Cc1[nH]c2ccc(C(=O)NCCN(C(C)C)C(C)C)cc2c1C [Compound 22]
penetration of the blood brain area in vivo ([2]; 33.3 mg/kg body weight, plasma and brain): penetrates the blood brain area; also recorded: can penetrate the blood brain area in vivo
Blood Brain Barrier Penetrability AUCbrain/AUCplasma ([2]; Compound 22 in mice): AUCbrain/AUCplasma = 2.24
Cmax ([2]; male, CD1, mouse, brain, ip, 33.3 mg/kg body weight, i.p. administration and formulation, read-out: Brain exposure Cmax): 5.56 µM
bioavailability (Oral bioavailability): 10%
